Source: patent US7589219B2, “2,5-bis-diamine-[1,4]benzoquinonic derivatives, useful for the treatment of alzheimer's disease, method for preparing them and intermediates of said method” (priority 2002, dated 2009)
“Also recorded” adds a separate entry of the source. Like-named read-outs stand apart in the source and are kept apart here.

Tests used:
[1] = tested on: anti-NGF transgenic mice (AD11); experiment: Immunohistochemistry and neurostereology in anti-NGF transgenic mice (AD11); type: in vivo, mouse; settings: for extracellular deposition of APP: 6 month-old AD11 mice (FIG. 19); for cholinergic deficit in the basal forebrain (number of cholinergic neurons): AD11 mice from 6 months of age for 15 days (FIG. 16); for number of cells accumulating β-amyloid protein in the hippocampus: treatment starting at 6 months of age (FIG. 20)
[2] = biological target: AChE (from human erythrocytes, amphiphilic form, EC 3.1.1.7) (Homo sapiens, UniProt P22303); experiment: biochemical; settings: for Selectivity IC50(BuChE)/IC50 (AChE): ratio of the Table I IC50 values
Chain of AChE (from human erythrocytes, amphiphilic form, EC 3.1.1.7) (P22303 32-617 isoform P22303-2 limits assumed): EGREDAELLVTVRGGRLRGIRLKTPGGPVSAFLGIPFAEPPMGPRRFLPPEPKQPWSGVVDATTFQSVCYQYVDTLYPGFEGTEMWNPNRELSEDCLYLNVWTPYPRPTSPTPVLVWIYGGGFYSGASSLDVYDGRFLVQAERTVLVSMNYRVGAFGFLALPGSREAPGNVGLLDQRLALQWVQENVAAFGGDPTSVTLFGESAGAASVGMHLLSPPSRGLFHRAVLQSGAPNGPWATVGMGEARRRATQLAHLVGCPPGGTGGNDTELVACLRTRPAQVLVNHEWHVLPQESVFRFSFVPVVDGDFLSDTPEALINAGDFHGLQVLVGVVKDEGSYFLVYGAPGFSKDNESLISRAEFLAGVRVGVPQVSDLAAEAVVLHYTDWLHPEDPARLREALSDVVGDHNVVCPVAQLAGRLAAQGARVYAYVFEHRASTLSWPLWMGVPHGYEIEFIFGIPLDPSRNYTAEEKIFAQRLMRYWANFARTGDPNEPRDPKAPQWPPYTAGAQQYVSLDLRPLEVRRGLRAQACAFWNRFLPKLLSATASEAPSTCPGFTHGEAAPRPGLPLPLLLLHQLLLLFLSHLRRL

[3] = biological target: BuChE (from human serum, EC 3.1.1.8) (Homo sapiens, UniProt P06276); experiment: biochemical
Chain of BuChE (from human serum, EC 3.1.1.8) (P06276 29-602): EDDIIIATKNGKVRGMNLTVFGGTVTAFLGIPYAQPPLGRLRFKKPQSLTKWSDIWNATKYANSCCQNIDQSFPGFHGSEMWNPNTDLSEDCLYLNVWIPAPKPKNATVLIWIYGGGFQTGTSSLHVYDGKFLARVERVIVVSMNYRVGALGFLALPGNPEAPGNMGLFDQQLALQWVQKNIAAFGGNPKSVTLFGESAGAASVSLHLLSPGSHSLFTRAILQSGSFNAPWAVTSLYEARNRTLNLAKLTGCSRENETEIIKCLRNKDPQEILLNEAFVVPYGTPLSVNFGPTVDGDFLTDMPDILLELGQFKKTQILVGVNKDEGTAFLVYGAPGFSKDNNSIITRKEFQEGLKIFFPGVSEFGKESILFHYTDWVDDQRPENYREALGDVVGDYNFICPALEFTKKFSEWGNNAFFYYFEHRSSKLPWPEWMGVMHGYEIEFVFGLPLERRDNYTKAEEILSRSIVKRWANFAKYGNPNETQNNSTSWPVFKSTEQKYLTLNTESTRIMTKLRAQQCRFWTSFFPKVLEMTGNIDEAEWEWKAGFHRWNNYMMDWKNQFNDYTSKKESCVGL

[4] = biological target: AChE, from human erythrocytes EC 3.1.1.7 (Homo sapiens, UniProt P22303); type: biochemical
Chain of AChE, from human erythrocytes EC 3.1.1.7 (P22303 32-617 isoform P22303-2 limits assumed): as the sequence (P22303 32-617 isoform P22303-2 limits assumed) above

[5] = biological target: recombining human AChE (HuAChE, EC 3.1.1.7) (Homo sapiens, UniProt P22303); type: biochemical; settings: mean of two independent measurements in triplicate
Chain of recombining human AChE (HuAChE, EC 3.1.1.7) (P22303 32-614): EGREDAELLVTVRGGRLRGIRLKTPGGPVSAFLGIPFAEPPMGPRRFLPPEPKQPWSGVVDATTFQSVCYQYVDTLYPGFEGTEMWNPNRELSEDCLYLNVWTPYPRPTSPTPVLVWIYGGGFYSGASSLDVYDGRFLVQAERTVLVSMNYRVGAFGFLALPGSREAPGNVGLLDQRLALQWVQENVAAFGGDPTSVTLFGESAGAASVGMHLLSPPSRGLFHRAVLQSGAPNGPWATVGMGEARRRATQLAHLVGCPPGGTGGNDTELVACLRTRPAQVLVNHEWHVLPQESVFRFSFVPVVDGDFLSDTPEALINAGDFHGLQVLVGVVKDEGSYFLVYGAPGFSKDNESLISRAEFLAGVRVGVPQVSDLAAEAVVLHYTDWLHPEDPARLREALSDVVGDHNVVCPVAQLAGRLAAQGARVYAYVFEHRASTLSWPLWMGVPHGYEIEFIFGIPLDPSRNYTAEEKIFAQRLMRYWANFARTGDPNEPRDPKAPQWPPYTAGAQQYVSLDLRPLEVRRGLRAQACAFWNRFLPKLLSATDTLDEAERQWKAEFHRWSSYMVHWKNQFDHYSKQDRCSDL

[6] = biological target: aggregation of Aβ (1-40) induced by AChE (recombining human, EC 3.1.1.7) (Homo sapiens, UniProt P22303); experiment: biochemical; type: biochemical
Chain of aggregation of Aβ (1-40) induced by AChE (recombining human, EC 3.1.1.7) (P22303 32-614): as above

AD11 mice = experiment: Object recognition test in AD11 mice; type: in vivo, mouse
[7] = tested on: non transgenic mice treated with scopolamine; experiment: Object recognition test, amnesia induced by scopolamine in non transgenic mice; type: in vivo, mouse; settings: per os 15 mg/kg 20 min before scopolamine 0.5 mg/kg s.c. (FIG. 14)
[8] = Total antioxidant status (Randox kit, modified), capture of oxygen radicals, ABTS colorimetric method; type: biochemical; settings: for % inhibition (antioxidant activity): absorbance 600 nm, 3 min, pH 7.4, 37° C.
[9] = AD11 mice, 15 days starting at 6 months of age (FIG. 18)
[10] = AChE from human erythrocytes, Ellman's method, Table I, read-out: IC50(AChE)
[11] = BuChE from human serum, Ellman's method, Table I, read-out: IC50 (BuChE)
[12] = BuChE from human serum, Example 50 table, mean of two independent measurements in triplicate, read-out: IC50 (BuChE)
[13] = AD11 mice aged 15 months, per os 7 mg/kg/day for 1 month, versus placebo (FIG. 11)
[14] = AD11 mice, daily from 1.5 months until 2 months of age, per os or intraperitoneal, comparison of AChE inhibitors (FIG. 15)

COc1ccccc1CN(C)CCCCCC(=O)N(C)CCCCCCCCN(C)C(=O)CCCCCN(C)Cc1ccccc1OC [Caproctamine, reference compound]
extracellular deposition of APP [1]: ineffective | cholinergic deficit in the basal forebrain (number of cholinergic neurons) [1]: had no effect on the number of cholinergic neurons | number of neurons labelled with antibodies against phospho-tau (entorhinal cortex) [1, 9]: ineffective | number of cells accumulating β-amyloid protein in the hippocampus ([1]; AD11 mice): ineffective

CCN(CCCCCCNC1=CC(=O)C(NCCCCCCN(CC)Cc2ccccc2OC)=CC1=O)Cc1ccccc1OC [Compound XVI, 2,5-Bis-{6-[ethyl-(2-methoxy-benzyl)-amino]-hexylamino}-[1,4]benzoquinone]
IC50 [2, 10]: 0.00239 ± 0.00014 µM | Selectivity IC50(BuChE)/IC50 (AChE) [2]: 602 | IC50 [3, 11]: 1.44 ± 0.1 µM | IC50 [3, 12]: 1.44 ± 0.1 µM | IC50 ([3]; approximate, corresponds to the Table I IC50, read-out: pIC50(BChE) (converted)): ~1.45 µM | type of inhibition ([4]; Lineweaver-Burk analysis (FIG. 1)): competitive inhibitor of a mixed type | Ki ([4]; acetylthiocholine 111-550 μM, Lineweaver-Burk, intercept of the gradient plot): 0.0026 µM | IC50 [5]: 0.00155 ± 0.00011 µM | IC50 ([6]; read-out: concentration able to reduce the signal of fluorescence by 50% (IC50, AChE-induced Aβ aggregation), Aβ 230 μM, AChE 2.3 μM, thioflavine T fluorescence): 28.3 ± 0.3 µM | extracellular deposition of APP [1]: reduced the extracellular deposition of APP | number of cholinergic neurons in the basal forebrain ([1]; AD11 mice aged 15 months, per os 7 mg/kg/day for 1 month (FIG. 9)): improvement in the number of cholinergic neurons | intracellular accumulation of hyperphosphorylated tau ([1]; AD11 mice aged 15 months, per os 7 mg/kg/day for 1 month, versus placebo (FIG. 10)): decreased | number of cells associated with plaques [1, 13]: lower than that in placebo-treated mice | number of β-amyloid plaques [1, 13]: decrease in the number of β-amyloid plaques | cholinergic deficit in the basal forebrain (number of cholinergic neurons) [1]: able to rescue the cholinergic deficit | APP deposition in the cerebral vessels ([1]; AD11 mice of 2 months, 7 mg/kg intraperitoneal daily for 15 days (FIG. 7)): able to reduce markedly the cerebrovascular deposition of APP | tau hyperphosphorylation in the cortex ([1]; AD11 mice of 2 months, 7 mg/kg intraperitoneal daily for 15 days (FIG. 8)): partly prevented | cholinergic neurons in the basal nucleus of Meynert ([1]; AD11 mice, 7 mg/kg intraperitoneal daily for 15 days from age 1.5 to 2 months (FIG. 6)): efficacious in preventing the loss of cholinergic neurons | ChAT positive cholinergic neurons in the basal forebrain ([1]; AD11 mice, 7 mg/kg intraperitoneal daily for 15 days from age 1.5 to 2 months (FIGS. 4, 5)): able to prevent the cholinergic deficit in the basal forebrain | number of neurons labelled with antibodies against phospho-tau (entorhinal cortex) ([1]; AD11 mice, 15 days starting at 1.5 months of age (FIG. 17)): reduced the number of neurons labelled with antibodies against phospho-tau | number of neurons labelled with antibodies against phospho-tau (entorhinal cortex) [1, 9]: reduced the number of neurons labelled with antibodies against phospho-tau | number of cholinergic neurons in the basal forebrain [1, 14]: prevented the decrease of the number of cholinergic neurons | number of cells accumulating β-amyloid protein in the hippocampus ([1]; AD11 mice): able to reduce the number of cells accumulating β-amyloid protein | behavioural deficit, object recognition test (discrimination index) (AD11 mice; AD11 mice at 6 months, 15 mg/kg/day per os for 15 days (FIGS. 12, 21), 15 mg/kg/day): improvement of the deficit; also recorded: marked amelioration of the behavioural deficit | behavioural deficit, object recognition test (discrimination index) (AD11 mice; AD11 mice at 12 months, 15 mg/kg/day per os for 15 days (FIG. 13)): improvement of the deficit | amnesia induced by scopolamine, object recognition test [7]: did not show any signs of amnesia | % inhibition (antioxidant activity) ([8]; concentration 170 μM, with human serum albumin 25 μM): 44.1 ± 3.7% | antioxidant power, times lower than Trolox ([8]; oxidated quinonic form tested): about 6 times

CCN(CCCCCCCNC1=CC(=O)C(NCCCCCCCN(CC)Cc2ccccc2OC)=CC1=O)Cc1ccccc1OC [IL, 2,5-bis-{7-[ethyl-(2-methoxy-benzyl)-amino]-heptylamino}-[1,4]benzoquinone]
IC50 [3, 12]: 1.25 ± 0.25 µM | IC50 [5]: 0.00779 ± 0.00037 µM

COc1ccccc1CNCCCCCCNC1=CC(=O)C(NCCCCCCNCc2ccccc2OC)=CC1=O [LI, 2,5-bis-[6-(2-methoxy-benzylamino)-hexylamino]-[1,4]-benzoquinone]
IC50 [3, 12]: 3.23 ± 0.15 µM | IC50 [5]: 0.123 ± 0.02 µM

COc1ccccc1CN(C)CCCCCCNC1=CC(=O)C(NCCCCCCN(C)Cc2ccccc2OC)=CC1=O [LIV, 2,5-bis-{6-[(2-methoxy-benzyl)-methylamino]-hexylamino}-[1,4]-benzoquinone]
IC50 [3, 12]: 5.11 ± 0.41 µM | IC50 [5]: 0.0778 ± 0.0043 µM

CCN(CCCCCCNC1=C(C)C(=O)C(NCCCCCCN(CC)Cc2ccccc2OC)=C(C)C1=O)Cc1ccccc1OC [LV, 2,5-bis-{6-[ethyl-(2-methoxy-benzyl)-amino]-hexylamino}-3,6-dimethyl-[1,4]-benzoquinone]
IC50 [3, 12]: 0.462 ± 0.002 µM | IC50 [5]: 0.0095 ± 0.00023 µM

Nc1c2c(nc3ccccc13)CCCC2 [Tacrine, reference compound]
number of cholinergic neurons in the basal forebrain [1, 14]: aggravated the cholinergic deficit

Cc1c(C)c2c(c(C)c1O)CCC(C)(C(=O)O)O2 (centres unmarked) [Trolox, 6-hydroxy-2,5,7,8-tetramethylchroman-2-carboxylic acid, reference compound]
% inhibition (antioxidant activity) ([8]; concentration 27 μM): 57.6 ± 0.9%

CCN(CCCNC1=CC(=O)C(NCCCN(CC)Cc2ccccc2OC)=CC1=O)Cc1ccccc1OC [XII, 2,5-Bis-{3-[ethyl-(2-methoxy-benzyl)-amino]-propylamino}-[1,4]benzoquinone]
IC50 [2, 10]: 0.00319 ± 0.00015 µM | IC50 ([2]; approximate, corresponds to the Table I IC50, read-out: pIC50(AChE) (converted)): ~0.00324 µM | Selectivity IC50(BuChE)/IC50 (AChE) [2]: 1407 | IC50 [3, 11]: 4.49 ± 0.34 µM | IC50 [5]: 0.00225 ± 0.00021 µM | inhibition at 100 µM ([6]; concentration of 100 μM): ~90%

CCN(CCCCCCNC1=CC(=O)C(NCCCCCCN(CC)Cc2ccco2)=CC1=O)Cc1ccco1 [XLI, 2,5-bis-[6-(ethyl-furan-2-ilmethyl-amino)-hexylamino]-[1,4]benzoquinone]
IC50 [3, 12]: 3.51 ± 0.18 µM | IC50 [5]: 0.144 ± 0.003 µM

CCN(CCNC1=CC(=O)C(NCCN(CC)Cc2ccccc2OC)=CC1=O)Cc1ccccc1OC [XLV, 2,5-bis-{2-[ethyl-(2-methoxy-benzyl)-amino]-ethylamino}-[1,4]benzoquinone]
IC50 [3, 12]: 16.8 ± 1.1 µM | IC50 [5]: 0.0615 ± 0.0013 µM

CCN(CCCCCCNC1=CC(=O)C(NCCCCCCN(CC)Cc2ccccc2)=CC1=O)Cc1ccccc1 [XVII, 2,5-Bis-[6-(benzyl-ethyl-amino)-hexylamino]-[1,4]benzoquinone]
IC50 [3, 12]: 0.645 ± 0.033 µM | IC50 [5]: 0.0733 ± 0.0032 µM

CCN(CCCCCCNC1=CC(=O)C(NCCCCCCN(CC)Cc2ccccc2Cl)=CC1=O)Cc1ccccc1Cl [XVIII, 2,5-Bis-{6-[ethyl-(2-chloro-benzyl)-amino]-hexylamino}-[1,4]benzoquinone]
IC50 [3, 12]: 45.1 ± 1 µM | IC50 [5]: 0.593 ± 0.051 µM

CCN(CCCCCCNC1=CC(=O)C(NCCCCCCN(CC)Cc2ccccc2[N+](=O)[O-])=CC1=O)Cc1ccccc1[N+](=O)[O-] [XXIX, 2,5-bis-{6-[ethyl-(2-nitro-benzyl)-amino]-hexylamino}-[1,4]benzoquinone]
IC50 [3]: 36.5 ± 8.8 µM | IC50 [5]: 2.31 ± 0.13 µM

CCN(CCCCCCNC1=CC(=O)C(NCCCCCCN(CC)Cc2cccc(OC)c2)=CC1=O)Cc1cccc(OC)c1 [XXXIII, 2,5-bis-{6-[ethyl-(3-methoxy-benzyl)-amino]-hexylamino}-[1,4]benzoquinone]
IC50 [3, 12]: 2.17 ± 0.07 µM | IC50 [5]: 0.0138 ± 0.0017 µM

CCN(CCCCCCNC1=CC(=O)C(NCCCCCCN(CC)Cc2ccc(OC)cc2)=CC1=O)Cc1ccc(OC)cc1 [XXXVII, 2,5-bis-{6-[ethyl-(4-methoxy-benzyl)-amino]-hexylamino}-[1,4]benzoquinone]
IC50 [3, 12]: 2.42 ± 0.94 µM | IC50 [5]: 0.0511 ± 0.001 µM
